Experimental data published in patent US11944600B2, “Use of cannabinoids in the treatment of a neurodegenerative disease or disorder” (priority 2017, dated 2024).

Columns and labels:
ALS patients = settings: in some patients; cited from earlier work
[1] = test system: experimental model of ALS; settings: prior art statement; cited from earlier work
[2] = test system: mSOD1-transgenic (G93A) mice; assay: Nissl-stained motor neurons in ventral horn of spinal cord in SOD-1 transgenic mice; type: in vivo, mouse; settings: SOD-1 mutant male mice vs vehicle-treated mutant mice; BDS 10 mg/kg i.p., olesoxime 3 mg/kg s.c., 10 to 21 weeks of age, FIG. 9
Experimental: (§1) A transgenic mouse model of ALS, SOD1, was used to determine the effects of the combined treatment of a drug used in the treatment of ALS, olesoxime, with THC.
(§2) mSOD1-transgenic (G93A) and wild-type mice were subjected to genotyping to identify the presence of mutant SOD-1. These mice were used for chronic treatment (from 10 weeks of age up to the age of 21 weeks) with test article or vehicle.
(§3) All studies were conducted in male mice (n=6-8 subjects in each experimental group).
(§4) The treatment groups were as follows: THC-BDS (10 mg/kg; i.p.); CBD-BDS (10 mg/kg; i.p); olesoxime (3 mg/kg; s.c.); a combination of THC-BDS and olesoxime; and vehicle. A group of wild-type animals were also treated with vehicle.
(§5) Animals were euthanized at the end of the treatment period and their spinal cords collected for biochemical and histopathological analyses.
(§6) Data were assessed using one-way (immunostaining data) or two-way (rotarod data) ANOVA followed by an appropriate post-hoc test (Student Newman-Keuls for immunostaining data, and Bonferroni for behavioural data) significance was reported at p≤0.05. Data shown in the figures represent “p<0.01, ***p<0.001
The number of motor neurons in the ventral horn of the spinal cord was quantified using Nissl staining.

[3] = test system: mSOD1-transgenic (G93A) mice; assay: Rotarod performance in SOD-1 transgenic mice; type: in vivo, mouse; settings: SOD-1 transgenic male mice, treated from 10 to 21 weeks of age; BDS 10 mg/kg i.p., olesoxime 3 mg/kg s.c., FIG. 7
Experimental: as §1, §2, §3, §4
(§7) Animals were recorded for neurological decline by testing rotarod performance during the whole treatment period. Animals were recorded for neurological decline (using a previously published ALS-related neurological scale; de Munck et al., 2013).
as §6

[4] = test system: mSOD1-transgenic (G93A) mice; assay: Neurological score in SOD-1 transgenic mice; type: in vivo, mouse; settings: SOD-1 mutant male mice, treated from 10 to 21 weeks of age; BDS 10 mg/kg i.p., olesoxime 3 mg/kg s.c., FIG. 8
Experimental: as §1, §2, §3, §4, §7, §6

TDP-43 transgenic mice [5] = assay: Rotarod test in TDP-43 transgenic mice; type: in vivo, mouse; settings: 10 mg/kg/day i.p.; for motor performance on rotarod compared to wild type: vs wild type
Experimental: (§8) A transgenic mouse model of ALS, TDP-43, was used to determine the effects of the cannabinoids in treatment of symptoms of ALS.
(§9) The TDP-43 transgenic and wild-type mice were subjected to genotyping to identify the presence of mutant TDP-43 gene. These mice were used for a chronic i.p. treatment (from 60 days of age up to the age of 90 days) with cannabinoid or vehicle.
as §3
(§10) The neuroprotective effects of 2 different phytocannabinoids (CBDV and CBDA) were investigated. The cannabinoids were administered at a dose of 10 mg/kg/day.
(§11) Animals were recorded for neurological decline by testing rotarod performance and observing limb clasping during the whole treatment period. The weight of the animals was also recorded during the treatment period.
(§12) Data were assessed using one-way (immunostaining data) or two-way (rotarod data) ANOVA followed by an appropriate post-hoc test (Student Newman-Keuls for immunostaining data, and Bonferroni for behavioural data) significance was reported at p≤0.05. Data shown in the figures represent “p<0.01, ***p<0.001.
The rotarod test was utilised to quantify the muscle weakness characteristic of TDP-43 transgenic mice.

TDP-43 transgenic mice [6] = assay: lba-1 immunostaining of spinal cord microglial cells in TDP-43 transgenic mice; type: in vivo, mouse; settings: TDP-43 transgenic male mice, 10 mg/kg/day i.p. from 60 to 90 days of age, FIG. 3
Experimental: as §8, §9, §3, §10, §5
Data were assessed using one-way (immunostaining data) or two-way (rotarod data) ANOVA followed by an appropriate post-hoc test (Student Newman-Keuls for immunostaining data, and Bonferroni for behavioural data) significance was reported at p≤0.05. […]
The number of microglial cells in the spinal cord was quantified using lba-1 immunostaining, and again differentiating resting and activated cells through the analysis of their morphological characteristics (e.g. cell shape and size, type of processes). […] This was also seen when the ratio between cell body area and cell process length was calculated.

TDP-43 transgenic mice [7] = assay: Nissl-stained spinal motor neurons in TDP-43 transgenic mouse model of ALS; type: in vivo; settings: TDP-43 transgenic male mice, 10 mg/kg/day i.p. from 60 to 90 days of age, vs vehicle (p<0.05), FIG. 1
Experimental: as §8, §9, §3, §10, §5, §12

TDP-43 transgenic mice [8] = assay: GFAP immunostaining of spinal cord astrocytes in TDP-43 transgenic mice; type: in vivo, mouse; settings: TDP-43 transgenic male mice, 10 mg/kg/day i.p. from 60 to 90 days of age, FIG. 2
Experimental: as §8, §9, §3, §10, §5, §12
The reduction of spinal motor neurons in TDP-43 transgenic mice was associated with an elevation in the number of astrocytes labelled with Glial fibrillary acidic protein (GFAP) immunostaining, in particular activated astrocytes identified by analysis of their morphological characteristics (e.g. increased cell shape and size, reduction in the length of processes).

TDP-43 transgenic mice [9] = assay: Weight gain in TDP-43 transgenic mice; type: in vivo, mouse; settings: TDP-43 transgenic male mice, 10 mg/kg/day i.p., FIG. 6A/6B
Experimental: as §8, §9, §3, §10, §11
The weight gain of animals was also monitored, this is a variable which is frequently used to monitor disease progression in animal models of ALS.

TDP-43 transgenic mice [10] = assay: Limb clasping in TDP-43 transgenic mice; type: in vivo, mouse; settings: TDP-43 transgenic male mice, 10 mg/kg/day i.p., FIG. 5
Experimental: as §8, §9, §3, §10, §11, §12

patients with ALS = settings: 27 patients with ALS, 5 mg of THC twice daily; cited from earlier work

Nc1nc2ccc(OC(F)(F)F)cc2s1 [riluzole]
onset of ventilator-dependence or tracheostomy (ALS patients): delays

CCCCCc1cc(O)c2c(c1)OC(C)(C)[C@@H]1CCC(C)=C[C@@H]21 [THC, Tetrahydrocannabinol]
neuroprotection in an experimental model of ALS [1]: neuroprotective

CCCCCc1cc(O)c2c(c1)OC(C)(C)c1ccc(C)cc1-2 [CBN, cannabinol, reference compound]
neuroprotection in an experimental model of ALS [1]: neuroprotective

CC(C)CCC[C@@H](C)[C@H]1CC[C@H]2[C@@H]3CCC4=CC(=NO)CC[C@]4(C)[C@H]3CC[C@]12C [olesoxime]
number of Nissl-stained motor neurons in the ventral horn of the spinal cord [2]: statistically significant
rotarod performance (time spent on the rod) [3]: able to attenuate the effect
elevated Neurological Score (neurological decline) [4]: non-significant trends towards a reduced score

C=C(C)[C@@H]1CCC(C)=C[C@H]1c1c(O)cc(CCC)cc1O [CBDV, Cannabidivarin]
motor performance on rotarod compared to wild type (TDP-43 transgenic mice [5]; TDP-43 mice at 12 weeks of age): significantly impaired
lba-1 immunostaining changes (cell bodies, cell processes, ratio), all parameters (TDP-43 transgenic mice [6]): reversed the changes
loss of Nissl-stained motor neurons in the spinal cord (TDP-43 transgenic mice [7]): almost completely recovered
ratio between cell body area and process length (GFAP-labelled astrocytes) (TDP-43 transgenic mice [8]): reduced
total immunoreactivity for GFAP (TDP-43 transgenic mice [8]): reduced
marked weight loss (weight gain monitoring) (TDP-43 transgenic mice [9]): reduce

C=C(C)[C@@H]1CCC(C)=C[C@H]1c1c(O)cc(CCCCC)c(C(=O)O)c1O [CBDA, Cannabidiolic acid]
performance on the rotarod compared to vehicle (TDP-43 transgenic mice [5]; TDP-43 mice at 12 weeks of age, vs vehicle): significantly superior performance
motor performance on rotarod compared to wild type (TDP-43 transgenic mice [5]; TDP-43 mice at 12 weeks of age): significantly impaired
rotarod performance (latency to fall) during disease progression (TDP-43 transgenic mice [5]; TDP-43 transgenic male mice, even at advanced stages of the disease, FIG. 4): attenuated the rotarod worsening
lba-1 immunostaining changes (cell bodies, cell processes, ratio), all parameters (TDP-43 transgenic mice [6]): reversed the changes
loss of Nissl-stained motor neurons in the spinal cord (TDP-43 transgenic mice [7]): almost completely recovered
ratio between cell body area and process length (GFAP-labelled astrocytes) (TDP-43 transgenic mice [8]): reduced
total immunoreactivity for GFAP (TDP-43 transgenic mice [8]): reduced
increase in limb clasping (TDP-43 transgenic mice [10]): strongly and significantly attenuated
marked weight loss (weight gain monitoring) (TDP-43 transgenic mice [9]): prevent

CCCCCc1cc(O)c2c(c1)OC(C)(C)[C@@H]1CCC(C)=C[C@@H]21 [dronabinol]
effect on the cramps associated with ALS (patients with ALS): failed to have a significant effect
